# Experimental data from patent US12139488B2, “Pyrido[3,2-d]pyrimidine compounds uses thereof for treating a proliferative disease” (Universite de Montreal, priority 2021, dated 2024).
# Read-outs that look alike come from different tables or passages of the source.
# Tests used:
# Assay type in all cases: cell-based, human
# [1] = test system: pERK in HCT-116 cells (KRAS G13D); experiment: Phospho-ERK inhibition (AlphaLISA SureFire Ultra p-ERK 1/2), HCT116; settings: for HCT116 pERK % Ymin: value in parentheses
# Outline: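 p-ERK1/2 (Thr202/Tyr204) in lysates measured by AlphaLISA after 1 h compound exposure of overnight-plated cells (RPMI-1640, 5% FBS, 0.5% DMSO, ten concentrations, usually from 10 μM). Background from a trametinib control subtracted, inhibition normalised to vehicle, and IC50 fitted with a variable-slope four-parameter model.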
# [2] = test system: pERK in Calu-6 cells (KRAS Q61K); experiment: Phospho-ERK inhibition (AlphaLISA), Calu-6; settings: for Calu6 pERK % Ymin: Calu6, value in parentheses
# Protocol: (§1) All cancer cell lines (A375, A101D, A2058, RKO, HT29 SK-MEL 30, IPC298, HepG2, HCT-116, Lovo, SWV620, SW480, NCI-H358, NCI-H2122, Calu-6, NCIH2087, NCIH1755, NCIH1666 and Mewo) were obtained from ATCC and cultured in RPMI-1640 medium (Gibco) supplemented with 5% heat inactivated fetal bovine serum (FBS, Wisent) at 37° C. under 5% CO2. Cells were maintained in T175 flasks (Greiner). They were passaged by removing the culture medium, washing once in 10 mL of room temperature Phosphate Buffered Saline (PBS; Wisent) and incubating at 37° C. with 2 mL of 0.05% Trypsin (Thermo-Fisher). Trypsin was then inactivated by adding complete growth medium and the cells were then replated in a T175 culture dish at the appropriate dilution. All cell lines were routinely tested for mycoplasma contamination. Tissue type and mutational status of each cell line can be found in Table B.
# (§2) AlphaLISA® SureFire® Ultra™ p-ERK 1/2 (Thr202/Tyr204) analysis was conducted on cells plated in 100 μL of complete RPMI-1640 growth medium in 96-well flat-bottomed transparent dishes (Costar) at a density indicated in Table C. Cells were maintained overnight at 37° C. under 5% CO2 before treatment with compounds' dilution series for one hour. The cell density in cells/cm^2 corresponds to cell number divided by the area of one well of a 96-well plate ([…]).
# (§3) In a dilution series 100 μL/well of test substance dilution prepared in complete RPMI-1640 growth media was added to the cells. The dilution series is selected so that ten concentrations cover a range from 10 μM to 0.33 nM. If necessary the initial concentration of 10 μM is increased to 100 μM or lowered to 1 μM (as in the case of A375 and H1666 cells, which are generally more sensitive to the compounds) and further dilution is carried out accordingly. The final concentration of DMSO in the assay is set at 0.5%.
# (§4) After treatment, media was removed and cells were lysed in 50 μL of 1× AlphaScreen Ultra Lysis Buffer (Perkin Elmer). The AlphaLISA® SureFire® Ultra™ p-ERK 1/2 (Thr202/Tyr2O4) (PerkinElmer) reactions were performed with 5 μL of cell lysate according to the manufacturer's specifications in 384-well proxyplates (Perkin Elmer) followed by overnight incubation of the reactions at room temperature in a humidified chamber. After completion of the reactions, the signals were recorded on an EnVision plate reader (Perkin Elmer) using built in AlphaLISA® settings.
# (§5) The effect of each compound dilution on the pERK signal was expressed in % inhibition and calculated as follows. An internal 100% inhibition control ([…] trametinib, cat #HY-10999; MedChem Express; CAS #871700-17-3) was included in each plate and used as a measure of pERK background. First, the value obtained for trametinib was subtracted from each data point. The average of DMSO (vehicle) controls (set as 0% inhibition) was established and used to calculate % inhibition: % inhibition=100*(1-((pERK signalcompound)/(pERK signalDMSO)))
# (§6) The ability of each compound to inhibit pERK signal was expressed as an IC50 value obtained by plotting the inhibition values for each data point of a dilution series and fitting the obtained curves using a log(agonist) versus response-variable slope (four parameters) function using GraphPadPrism (V7.0) or Dotmatics Screening Ultra platform.
# (§7) When present, paradoxical pERK induction is inferred from the negative % inhibition values observed in the pERK IC50 curves of a compound.
# SW620 cells (KRAS-G12V) = experiment: Proliferation inhibition (CellTiter-Glo), SW620; settings: SW620, 3 days, read-out: SW620 Prolif. EC50
# Protocol: as §1
# (§8) CellTiter-Glo® viability analysis was conducted on cells plated in 100 μL of complete RPMI-1640 growth medium in 96-well flat-bottomed white opaque plates (Greiner or Croning) at a density indicated in Table E (for each CCL, number of cells plated per well of a 96-well plate to perform the CellTiter-Glo® cell viability assay). The cell density in cells/cm^2 would correspond to cell number divided by the area of one well of a 96-well plate (0.32 cm^2). […]
# (§9) After 3 days of incubation, the growth media were removed by aspiration and 60 μL of diluted CellTiter-Glo® reagent (10 μL CellTiter-Glo® reagent+50 μL of PBS) was added to each well. […] Luminescence signals were then acquired on a Synergy Neo2 plate reader (Biotek).
# (§10) The effect of each compound dilution on the proliferation of cancer cell lines was expressed in % inhibition and calculated as follows. […]
# as §6, with “proliferation” for “pERK signal”, “a EC50” for “an IC50”, “effect” for “inhibition”
# RKO cells (BRAF V600E) = experiment: Proliferation inhibition (CellTiter-Glo), RKO; settings: 3 days, read-out: RKO Prolif. EC50
# Protocol: as §1, §8, §9, §10
# as §6, with “proliferation” for “pERK signal”, “a EC50” for “an IC50”, “effect” for “inhibition”
# [3] = test system: NCI-H358 cells (KRAS-G12C); experiment: Proliferation inhibition (CellTiter-Glo), NCI-H358; settings: NCI-H358, 3 days, read-out: NCI-H358 Prolif. EC50
# Protocol: as §1, §8, §9, §10
# as §6, with “proliferation” for “pERK signal”, “a EC50” for “an IC50”, “effect” for “inhibition”
# [4] = test system: pERK in NCI-H2122 cells (KRAS-G12C); experiment: Phospho-ERK inhibition (AlphaLISA), NCI-H2122; settings: for IC50: NCI-H2122; for NCI-H2122 pERK % Ymin: NCI-H2122, value in parentheses
# Protocol: as §1, §2, §3, §4, §5, §6, §7
smiles,measurement,setting,value
"Cc1ccc2c(Nc3cccc(Cl)c3F)nccc2c1NC(=O)c1csc2c(N)ncnc12 [Belvarafenib, reference compound]",HCT116 pERK % Ymin,"[1]; HCT116, Table D",−46%
same,IC50,"[1]; Homo sapiens, HCT-116, HCT116, Table D",30 to 300 nM
same,Calu6 pERK % Ymin,[2],−39%
same,IC50,"[2]; Homo sapiens, Calu-6, read-out: Calu6 pERK IC50",30 to 300 nM
same,EC50,"SW620 cells (KRAS-G12V); Homo sapiens, SW-620, 72 h",300 to 3000 nM
same,EC50,"RKO cells (BRAF V600E); Homo sapiens, 72 h",< 30 nM
same,EC50,"[3]; Homo sapiens, 72 h",300 to 3000 nM
same,IC50,[4]; Homo sapiens,30 to 300 nM
same,NCI-H2122 pERK % Ymin,[4],−9%
Nc1cccc2c1ncn2-c1ccc2ncnc(Nc3c(F)ccc(NS(=O)(=O)c4cccc(Cl)c4Cl)c3F)c2n1 [Example 99],IC50,"[1]; HCT116, Table D",30 to 300 nM
same,HCT116 pERK % Ymin,"[1]; HCT116, Table D",−0.3%
same,HCT116 pERK Ymin %,"[1]; HCT116 cells, Ymin in brackets",−5.4%
same,IC50,"[1]; HCT116 cells, class symbol before the bracket",< 500 nM
same,YMIN of pERK IC50 dose response curve (paradoxical induction of pERK signaling),"[1]; RAS-mutant HCT116 cells, FIG. 1",> −20%
same,IC50,[2]; Calu6,30 to 300 nM
same,Calu6 pERK % Ymin,[2],−12%
same,EC50,SW620 cells (KRAS-G12V),300 to 3000 nM
same,EC50,RKO cells (BRAF V600E),< 30 nM
same,EC50,[3],< 30 nM
same,IC50,[4],30 to 300 nM
same,NCI-H2122 pERK % Ymin,[4],−3%
CC1(O)CCN(c2cccc3c2ncn3-c2ccc3ncnc(Nc4c(F)ccc(NS(=O)(=O)c5cccc(Cl)c5Cl)c4F)c3n2)CC1 [Example 524],IC50,"[1]; HCT116, Table D",30 to 300 nM
same,HCT116 pERK % Ymin,"[1]; HCT116, Table D",−3%
same,IC50,"[1]; HCT116 cells, class symbol",< 500 nM
same,IC50,[2]; Calu6,30 to 300 nM
same,Calu6 pERK % Ymin,[2],−13%
same,EC50,SW620 cells (KRAS-G12V),300 to 3000 nM
same,EC50,RKO cells (BRAF V600E),< 30 nM
same,EC50,[3],< 30 nM
same,IC50,[4],30 to 300 nM
same,NCI-H2122 pERK % Ymin,[4],13%
